Experimental data taken from paper PMC9916969 (International Journal of Molecular Sciences, 2023).
Like-named read-outs stand apart in the source and are kept apart here.

Columns and labels:
[1] = tested on: porcine liver CES; assay: In vitro CES inhibition (4-NPA substrate); format: biochemical; settings: compound 20 µM, n.a. = not active
Description: (§1) Assessment of the esterase profile of new potential anti-AD molecules enables the estimation of both the primary pharmacological effects of the tested compounds—their inhibition of AChE and BChE—and their possible unwanted side effect—inhibition of CES, which hydrolyzes numerous ester-containing drugs. For the esterase profile evaluation, human erythrocyte AChE, equine serum BChE, and porcine liver CES were used. These sources of BChE and CES were employed because of their relatively low cost, high sequence identity to human enzymes, and the exploratory character of this work.
(§2) Chromophore absorbances were measured with a FLUOStar Optima microplate reader (BMG Labtech, Ortenberg, Germany). […] Initially, we used a single concentration of 20 µM for all compounds.

[2] = target: β-amyloid (1–42) (Aβ42) (Homo sapiens, UniProt P05067); assay: Inhibition of Aβ42 self-aggregation (thioflavin T); format: biochemical; settings: read-out: Inhibition of Aβ42 Self-Aggregation
β-amyloid (1–42) (Aβ42), sequence (P05067 672-713 limits assumed): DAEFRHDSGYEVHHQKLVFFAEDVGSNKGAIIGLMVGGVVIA
Procedure: The inhibitory activity of tested hybrids against the self-aggregation of Aβ42 was determined in vitro using the thioflavin T (ThT) fluorimetric assay. According to [84], the ThT test is ideal for preliminary screening of inhibitors of Aβ42 self-aggregation, as it enables the quantitative testing of large numbers of compounds within a relatively short time.
The influence of the inhibitory effect of the test compounds toward Aβ42 self-aggregation was determined using the thioflavin T (ThT) fluorescence method with minor modifications. This assay is based on a specific interaction between the fluorescent dye thioflavin T that binds to the β-sheets of assembled amyloid fibrils leading to a significant increase in fluorescence signal. Therefore, the decrease in ThT fluorescence correlates with the ability of the studied compounds to inhibit the formation of amyloid aggregates.
One mg of lyophilized HFIP-pretreated Aβ42 from BACHEM (Bubendorf, Switzerland) was dissolved in DMSO to obtain a stable initial solution ([Aβ42] = 500 μM); then it was aliquoted and stored at −20 °C.
For the measurement of Aβ42 self-aggregation and amyloid fibril inhibition studies by the tested compounds, aliquots of 500 μM Aβ42 stock solution were diluted in 215 mM Na-phosphate buffer pH = 8.0 to a final concentration of 50 μM Aβ42. Then the samples were incubated for 24 h at 37 °C without stirring in the absence (base level of Aβ42 self-aggregation, control) or presence of the test compounds. Myricetin and propidium iodide were used as reference compounds (positive controls). All compounds were used in a concentration of 100 µM. To quantify Aβ42 fibril formation, after incubation, 5 μM ThT in 50 mM glycine-NaOH buffer pH 8.5 was added to the solutions to a final concentration of 4 μM ThT and the fluorescence was measured at 440 nm (excitation) and 485 nm (emission). Analyses were performed with a FLUOStar Optima microplate reader (LabTech, Ortenberg, Germany). The blanks consisted of 215 mM Na-phosphate buffer, pH = 8.0, 20% (v/v) DMSO or test compounds, respectively. Each assay was run in triplicate.

[3] = target: T1, AChE (Homo sapiens, UniProt P22303); assay: Kinetic study of AChE inhibition (Lineweaver-Burk); format: biochemical; settings: for αKi (non-competitive inhibition constant), AChE: mixed-type inhibition, mean ± SEM; for Ki: read-out: Ki (competitive inhibition constant), AChE
T1 construct: human erythrocyte AChE, equine serum BChE, and porcine liver CES were used; purchased Sigma-Aldrich; host or cells: human erythrocytes (tissue-derived)
T1 sequence (P22303 32-617 isoform P22303-2 limits assumed): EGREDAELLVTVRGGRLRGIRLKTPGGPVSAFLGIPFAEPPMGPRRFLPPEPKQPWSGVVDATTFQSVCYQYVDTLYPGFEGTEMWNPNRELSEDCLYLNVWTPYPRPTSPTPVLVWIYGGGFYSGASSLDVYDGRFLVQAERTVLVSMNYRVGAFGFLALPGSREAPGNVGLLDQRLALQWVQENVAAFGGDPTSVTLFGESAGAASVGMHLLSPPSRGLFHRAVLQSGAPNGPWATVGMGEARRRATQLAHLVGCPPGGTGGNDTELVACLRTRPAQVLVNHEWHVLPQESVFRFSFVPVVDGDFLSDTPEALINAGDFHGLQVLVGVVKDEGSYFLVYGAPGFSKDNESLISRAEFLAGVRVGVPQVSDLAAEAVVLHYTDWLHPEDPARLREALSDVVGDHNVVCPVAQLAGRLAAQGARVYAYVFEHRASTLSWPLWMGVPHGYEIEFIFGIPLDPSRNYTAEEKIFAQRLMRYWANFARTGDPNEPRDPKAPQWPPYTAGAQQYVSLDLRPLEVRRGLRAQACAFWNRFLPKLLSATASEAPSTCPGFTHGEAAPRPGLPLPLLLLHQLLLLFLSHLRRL
Procedure: (§3) We assessed the mechanisms of AChE and BChE inhibition by performing a thorough analysis of enzyme kinetics. After a 5 min incubation at 25 °C (for temperature equilibration) with three increasing concentrations of inhibitor and six decreasing substrate concentrations, the residual enzyme activity was measured as described above for enzymatic assays.

[4] = target: T2, equine serum BChE (Equus caballus, UniProt P81908); assay: biochemical; settings: mean ± SEM, n = 3, read-out: Inhibitory activity against BChE, IC50
T2 construct: human erythrocyte AChE, equine serum BChE, and porcine liver CES were used; purchased Sigma-Aldrich; host or cells: equine serum (tissue-derived)
T2 sequence (P81908 whole entry): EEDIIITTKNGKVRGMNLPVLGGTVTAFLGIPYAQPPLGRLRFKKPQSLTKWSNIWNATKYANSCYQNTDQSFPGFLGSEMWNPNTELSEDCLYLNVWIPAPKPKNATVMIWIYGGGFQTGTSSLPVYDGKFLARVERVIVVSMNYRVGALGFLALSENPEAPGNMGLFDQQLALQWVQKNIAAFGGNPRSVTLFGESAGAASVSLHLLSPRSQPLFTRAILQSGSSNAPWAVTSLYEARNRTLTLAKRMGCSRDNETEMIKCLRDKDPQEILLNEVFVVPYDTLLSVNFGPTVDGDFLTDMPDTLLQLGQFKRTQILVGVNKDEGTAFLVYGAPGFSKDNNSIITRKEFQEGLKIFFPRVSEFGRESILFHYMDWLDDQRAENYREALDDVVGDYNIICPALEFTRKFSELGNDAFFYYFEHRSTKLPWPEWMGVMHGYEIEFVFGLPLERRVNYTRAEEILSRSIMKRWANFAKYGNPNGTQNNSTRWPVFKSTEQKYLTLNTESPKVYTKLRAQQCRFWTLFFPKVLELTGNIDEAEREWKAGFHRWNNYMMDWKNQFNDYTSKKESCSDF
Description: as §1, §2

[5] = target: T3, human erythrocyte AChE (Homo sapiens, UniProt P22303); assay: biochemical; settings: mean ± SEM, n = 3, read-out: Inhibitory activity against AChE, IC50
T3 construct: human erythrocyte AChE, equine serum BChE, and porcine liver CES were used; purchased Sigma-Aldrich; host or cells: human erythrocytes (tissue-derived)
T3 sequence (P22303 32-617 isoform P22303-2 limits assumed): as the sequence (P22303 32-617 isoform P22303-2 limits assumed) above
Description: as §1, §2

[6] = in vitro; format: cell-based; settings: mouse
Procedure: […]. Accordingly, in the present work, we paid special attention to the study of the cytotoxic activity of compounds on primary cultures of mouse hepatocytes using standard MTT methodology.
The cytotoxicity of the compounds was evaluated using a primary culture of mouse hepatocytes isolated at the Center for Biotechnology and Bioengineering, Ural Federal University, Ekaterinburg, Russia, according to the standard method. Cells were seeded in 96-well plates in the inoculum dose of 1 × 10^4 cells/mL and cultured for 24 h in Dulbecco’s Modified Eagle Medium (DMEM), with 1% (w/v) glutamine in the presence of 10% (v/v) fetal bovine serum and gentamicin (50 mg/L) at 37 °C, with a humidified atmosphere of 5% (v/v) CO2. Cell viability was assessed using the standard MTT assay. The compounds were dissolved in DMSO and then in a nutrient medium, after which they were added to the wells with cells at final concentrations of 10^−7, 10^−6, 10^−5, and 10^−4 M. Hepatocytes were exposed to test compounds for 24 h at 37 °C, 95% relative humidity and 5% (v/v) CO2 atmosphere. After incubation, the medium was replaced with 100 μL of fresh medium containing MTT (0.5 mg/mL). The plates were then incubated at 37°C in a CO2 incubator for 2 h. Then the medium with MTT was removed and DMSO was added to dissolve the formazan crystals.
The results of the MTT assay were evaluated on a Tecan Infinite M200 PRO (Tecan Austria GmbH, Grödig, Austria) plate spectrophotometer at 570 nm by comparing the optical density of a formazan solution in the assay and control wells. The cell viability was expressed as the percentage of untreated control. The results were obtained from three independent experiments performed in six replicates. The IC50 (μM) values were calculated by the AAT Bioquest-calculator: (https://www.aatbio.com/tools/ic50-calculator, accessed on 1 December 2022) and expressed as a mean ± standard error of the mean (SEM). Statistical analysis was carried out using Microsoft Excel 2007 (Microsoft Corporation, Redmond, WA, USA) and Statistica 2009 (Tulsa, OK, USA) programs.

[7] = target: T4, eqBChE (Equus caballus, UniProt P81908); assay: Kinetic study of BChE inhibition (Lineweaver-Burk); format: biochemical; settings: for Ki: read-out: Ki (competitive inhibition constant), eqBChE
T4 construct: human erythrocyte AChE, equine serum BChE, and porcine liver CES were used; purchased Sigma-Aldrich; host or cells: equine serum (tissue-derived)
T4 sequence (P81908 whole entry): as the sequence (P81908 whole entry) above
Procedure: Similar results were obtained for other tested compounds (Figures S61 and S62). The obtained values of inhibition constants (Ki = competitive component and αKi = non-competitive component) are shown in Table 2.
as §3

[8] = target: T5, EeAChE PAS (Electrophorus electricus, UniProt O42275); format: binding; settings: compound 20 µM; EeAChE 7 µM; propidium iodide 8 µM
T5 construct: The enzyme was electric eel AChE (EeAChE type VI-S, lyophilized powder, Sigma-Aldrich); purchased Sigma-Aldrich type VI-S; host or cells: electric eel (tissue-derived)
T5 sequence (O42275 24-633): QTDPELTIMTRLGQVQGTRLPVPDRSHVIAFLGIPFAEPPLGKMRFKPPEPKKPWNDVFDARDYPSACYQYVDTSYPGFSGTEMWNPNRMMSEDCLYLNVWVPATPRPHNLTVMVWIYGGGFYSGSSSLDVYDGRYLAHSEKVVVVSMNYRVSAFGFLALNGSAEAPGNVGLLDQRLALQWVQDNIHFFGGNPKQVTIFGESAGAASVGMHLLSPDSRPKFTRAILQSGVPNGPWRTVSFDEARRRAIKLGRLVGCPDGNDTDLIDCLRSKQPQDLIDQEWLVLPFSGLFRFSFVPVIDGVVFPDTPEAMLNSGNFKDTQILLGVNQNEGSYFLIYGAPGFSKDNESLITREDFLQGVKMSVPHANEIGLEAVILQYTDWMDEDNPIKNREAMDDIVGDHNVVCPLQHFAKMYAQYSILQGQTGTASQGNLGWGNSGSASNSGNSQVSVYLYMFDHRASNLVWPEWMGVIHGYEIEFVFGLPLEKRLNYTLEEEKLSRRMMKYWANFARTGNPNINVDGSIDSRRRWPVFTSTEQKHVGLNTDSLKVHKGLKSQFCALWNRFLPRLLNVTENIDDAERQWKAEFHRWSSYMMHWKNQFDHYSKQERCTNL
Description: This method is widely used as a screening approach to assess the potential ability of compounds to block AChE-induced β-amyloid aggregation. This is because when the compounds bind to the AChE PAS, they prevent the binding of β-amyloid, thereby inhibiting its aggregation.
The enzyme was electric eel AChE (EeAChE type VI-S, lyophilized powder, Sigma-Aldrich). We selected this source of AChE for consistency with our other reports and because of the purity, specific activity, and lower cost compared to human AChE.
Propidium iodide (final concentration 8 μM) was then added for a further 15 min incubation, and the fluorescence spectrum was taken (530 nm excitation and 600 nm emission) using a FLUOStar Optima microplate reader. The same concentration of propidium iodide in the Tris buffer was used as the blank. Triplicate determinations were recorded and the results were calculated via the following equation:% Displacement = 100 − (IFAChE+ Propidium + inhibitor/IFAChE + Propidium) × 100, where IFAChE + Propidium = fluorescence intensity of propidium iodide associated with AChE in the absence of the test compound (taken as 100%), and IFAChE + Propidium + inhibitor = fluorescence intensity of propidium iodide associated with AChE in the presence of the test compound.

[9] = FRAP assay; settings: Trolox equivalents; 60 min, 37 °C; n.a. = not active
Procedure: The Ferric Reducing Antioxidant Power (FRAP) test involves reduction of the ferric 2,4,6-tripyridyl-s-triazine complex [Fe(TPTZ)2]^3+ to an intense-blue ferrous complex [Fe(TPTZ)2]^2+ [92], as previously reported. Results are given as Trolox Equivalents (TE).
The FRAP (ferric reducing antioxidant power) assay proposed by Benzie and Strain [92] was modified to be performed in 96-well microplates as described in detail in [53]. The FRAP reagent contained 2.5 mL of 10 mM TPTZ (2,4,6-tris(2-pyridyl)-s-triazine, Sigma-Aldrich) solution in 40 mM HCl, 2.5 mL of 20 mM FeCl3 (Sigma-Aldrich) in distilled water and 25 mL of 0.3 M acetate buffer (pH 3.6). Aliquots of 10 µL of the test compound dissolved in DMSO (0.5 mM) were placed in quadruplicate. Absorbance was measured at a wavelength of 593 nm after 60 min incubation at 37 °C. In each case, Trolox was used as a reference compound to obtain the standard curve. The AO activity was calculated with respect to the activity of Trolox and expressed as Trolox equivalents (TE)—the values calculated as the ratio of the concentrations of Trolox and the test compound resulting in the same effect on ferric reducing activity.

[10] = ABTS radical cation scavenging assay; set-up: key to ABTS^•+ Scavenging Activity, TEAC: TEAC: ratio of compound slope to Trolox slope (Trolox equivalents); settings: 1 h incubation
Procedure: In the ABTS assay, the dark-green ABTS cation-radical (ABTS^•+) is quenched by interaction with AOs. The consequent decrease in absorbance is followed spectrophotometrically per the previously described method.
Radical scavenging activity of the compounds was assessed using the ABTS radical cation (ABTS^•+) decolorization assay with some modifications. ABTS (2,2′-azinobis-(3-ethylbenzothiazoline-6-sulfonic acid) was purchased from Tokyo Chemical Industry Co., Ltd. (Tokyo, Japan); potassium persulfate (dipotassium peroxodisulfate), Trolox (6-hydroxy-2,5,7,8-tetramethylchroman-2-carboxylic acid), and HPLC-grade ethanol and DMSO were obtained from Sigma-Aldrich (Saint Louis, MO, USA). Aqueous solutions were prepared using deionized water. All tested compounds were dissolved in DMSO.
The solution of cation radical ABTS^•+ was produced by incubation of an aqueous solution of 7 mM ABTS and 2.45 mM potassium persulfate solution in equal quantities for 12–16 h at room temperature in the dark. Radical scavenging capacity of the compounds was analyzed by mixing 10 μL of compound with 240 μL of ABTS^•+ working solution in ethanol (100 μM final concentration). The reaction was monitored for an hour at 30 °C with an interval of 10 min. Data are given for 1 h of incubation of compounds with ABTS^•+. The reduction in absorbance was measured spectrophotometrically at 734 nm using an xMark microplate UV/VIS spectrophotometer (Bio-Rad, Hercules, CA, USA). Ethanol blanks were run in each assay. Values were obtained from five replicates of each sample and three independent experiments.
The standard AO Trolox was used as a reference compound. AO capacity as Trolox equivalent (TEAC) values was determined as the ratio between the slopes obtained from the linear correlation of the ABTS radical absorbance with the concentrations of tested compounds and Trolox. Ascorbic acid was used as a positive control. […]. The compounds were tested in the concentration range of 0.5–100 µM.

[11] = Aβ42 50 µM, compound 100 µM, 24 h, 37 °C, thioflavin T
[12] = mixed-type inhibition, mean ± SEM

Compound: COc1ccccc1C(=O)NCCCCCCCCNc1c2c(nc3ccccc13)CCCC2 [6c]
- Inhibitory activity against CES, inhibition at 20 µM [1]: 10.6 ± 1.2%
- inhibition at 100 µM [2, 11]: 55.6 ± 4.4%
- αKi (non-competitive inhibition constant), AChE [3]: 0.213 ± 0.012 µM
- Ki [3]: 104 ± 4 nM
- IC50 [4]: 47.5 ± 3.2 nM
- IC50 [5]: 150 ± 11 nM
- IC50 at 24 h [6]: 3810 ± 70 nM
- αKi (non-competitive inhibition constant), eqBChE [7, 12]: 0.0314 ± 0.0025 µM
- Ki [7]: 18.8 ± 1.1 nM
- Propidium Displacement from EeAChE PAS [8]: 14.1 ± 0.9%

Compound: Nc1c2c(nc3ccccc13)CCCC2 [Tacrine, reference compound]
- inhibition at 100 µM [2]: 5.9 ± 0.5%
- IC50 at 24 h [6]: 3780 ± 150 nM

Compound: COc1cc(F)c(F)cc1C(=O)NCCCCCCNc1c2c(nc3ccccc13)CCCC2 [8b]
- Inhibitory activity against CES, inhibition at 20 µM [1]: 6.3 ± 0.9%
- inhibition at 100 µM [2, 11]: 29.7 ± 2.3%
- IC50 [4]: 70.2 ± 4.2 nM
- IC50 [5]: 712 ± 67 nM
- IC50 at 24 h [6]: 3950 ± 220 nM
- FRAP, TE [9]: 0.02
- Propidium Displacement from EeAChE PAS [8]: 13.8 ± 0.9%

Compound: O=C(NCCCCCCCCNc1c2c(nc3ccccc13)CCCC2)c1ccccc1O [5c]
- Inhibitory activity against CES, inhibition at 20 µM [1]: 29.5 ± 2.5%
- inhibition at 100 µM [2, 11]: 71.9 ± 5.7%
- αKi (non-competitive inhibition constant), AChE [3]: 0.263 ± 0.018 µM
- IC50 [4]: 10.4 ± 1.3 nM
- IC50 ([10]; 50% reduction of ABTS radical cation): 25500 ± 1100 nM
- ABTS^•+ Scavenging Activity, TEAC ([10]; Trolox equivalent, n.a. = not active): 0.75 ± 0.04
- αKi (non-competitive inhibition constant), eqBChE [7, 12]: 0.0171 ± 0.0013 µM
- Ki [7, 12]: 10.6 ± 0.7 nM
- Propidium Displacement from EeAChE PAS [8]: 14.2 ± 1.1%

Compound: COc1cc(F)c(F)cc1C(=O)NCCCCCCCCNc1c2c(nc3ccccc13)CCCC2 [8c]
- Inhibitory activity against CES, inhibition at 20 µM [1]: 19.8 ± 3.1%
- inhibition at 100 µM [2, 11]: 54.1 ± 4.3%
- αKi (non-competitive inhibition constant), AChE [3]: 0.0998 ± 0.0058 µM
- Ki [3]: 53.6 ± 2.5 nM
- IC50 [4]: 31.7 ± 2.4 nM
- IC50 [5]: 142 ± 11 nM
- αKi (non-competitive inhibition constant), eqBChE [7, 12]: 0.0187 ± 0.0013 µM
- Ki [7]: 17.7 ± 0.7 nM
- FRAP, TE [9]: 0.02
- Propidium Displacement from EeAChE PAS [8]: 15.1 ± 1.2%
